Measured values from patent US9944670B2, “Gemcitabine derivatives, compositions comprising same and pharmaceutical applications thereof” (HANGZHOU MINSHENG INSTITUTES FOR PHARMA RESEARCH CO., LTD, priority 2013, dated 2018).
“And” between values parts separate entries of the source, which are not always exact repeats. Identical values can stand only once. Counter-ions that a name gives are not always drawn.

Assays:
MCF-7-ADR = test: MTT cytotoxic activity against drug-resistant tumor cell line; assay type: cell-based, Human; details: for IC50: NCI/ADR-RES, doxorubicin-resistant human breast cancer cells, 48 hours incubation, MTT, Bliss method
Experimental: Purpose: Compare differences of cytotoxic activity against drug-resistant tumor cell lines between gemcitabine derivatives (Compounds of examples 1-9 of the present invention) and gemcitabine (known compound, as “comparative example” in the table below).
Materials and Methods: Human breast cancer doxorubicin-resistant cell line MCF-7-ADR was cultured in 1640 medium containing 5% fetal calf serum; gemcitabine and its derivative GI-06 were dissolved in DMSO, frozen preserved at −20° C., and diluted by 1640 medium containing 5% fetal calf serum to the appropriate concentration before they were used. The final concentration of DMSO solution was 0.5%. Activity tests: MCF-7-ADR cells in the logarithmic growth phase were seeded 3×10^3 per well in 96-well culture plates. The medium was changed after incubating for 24 hours by adding test solutions at different concentrations, while the control group was added DMSO medium with concentration of 0.5%, and the cells continued to be incubated for 48 hours. Then the cell activity was assayed by MTT. Inhibition rate (%)=([…](absorbance of the blank control group−absorbance of the administration group)/absorbance of the blank control group)×100%; IC50: calculated by Bliss method.

HCT-116 colon cancer = test: Growth of subcutaneous transplanted tumor in nude mice bearing HCT-116 colon cancer
Excerpt: Purpose: 4 compounds' influence to the growth of subcutaneous transplanted tumor in nude mice bearing HCT-116 colon cancer
Positive control: Gemcitabine hydrochloride.
Experimental animals: Nude mice, female, 4-5 weeks old, 60 cases.
Cell lines: HCT-116 colon cancer cell.
Modeling: Five mice were inoculated by cell suspension before the experiment, after passaging 4 times in nude mice, prepared model by subcutaneous inoculation using the interpolation block tumor masses.
Route of administration: Gemcitabine hydrochloride group was adminstered by intraperitoneal injection, the rest groups were adminstered by oral gavage.
The adminstered volume: 0.1 ml/10 g
Observation time: Consecutive observation for 15 days after administration, tumor volume was measured twice a week. Stop administration at the 15th day.

A2780 ovarian cancer = test: Growth of subcutaneous transplanted tumor in nude mice bearing A2780 ovarian cancer
Excerpt: Test sample: GI-06; Positive control: gemcitabine hydrochloride
Experimental animals: nude mice, female, 4-5 weeks old, 40 cases.
Cell lines: A2780 ovarian cancer cell, purchased from Shanghai institute of cell biology.
Grouping: When tumor volume grew to 100 mm^3, nude mice which reached standard were randomly divided into five groups, namely solvent control group, gemcitabine hydrochloride group, GI-06 high, medium, low dosage groups, 6 nude mice in each group.
The administration volume: 0.1 ml/10 g
Frequency of administration: Gemcitabine hydrochloride was respectively adminstered twice in the first and third week (D1, D4, D15, D18), 4 times in total; Each GI-06 dosage group was adminstered once a day, 21 days in total.
Animals were sacrificed on the 22nd day, the tumors were weighed.
Statistical Methods: Excel statistical software package, ANOVA analysis.

[1] = 15 mg/kg oral gavage, five consecutive days a week, 10 times in total
[2] = 160 mg/kg intraperitoneal injection, D1, D4, D15, D18
[3] = high dosage 12 mg/kg oral gavage once a day, 21 days
[4] = low dosage 4 mg/kg oral gavage once a day, 21 days
[5] = medium dosage 8 mg/kg oral gavage once a day, 21 days
[6] = low dosage 5 mg/kg oral gavage, 12 times in total
[7] = medium dosage 10 mg/kg oral gavage, 12 times in total
[8] = 160 mg/kg intraperitoneal injection, D1 and D4, twice in total

SMILES	IC50 (MCF-7-ADR) [µM]	T/C (%) D15 (HCT-116 colon cancer; [1])	Tumor volume (mm^3) D15 (HCT-116 colon cancer; [1])	Weight (g) D15 (HCT-116 colon cancer; [1]) [g]	other results
CC(C)(C)c1cnc(CSc2cnc(NC(=O)CCCCCCCCC(=O)Nc3ccn([C@@H]4O[C@H](CO)[C@@H](O)C4(F)F)c(=O)n3)s2)o1 [GI-09, N-(5-(((5-(t-butyl)oxazol-2-yl)methyl)thio)thiazol-2-yl)-N′-(1-((2R,4R,5R)-3,3-difluoro-4-hydroxy-5-(hydroxymethyl)tetrahydrofuran-2-yl)-2-oxo-1,2-dihydro-pyrimidin-4-yl)sebacamide]	2.66	43.26%	724.50 ± 158.19 mm^3	18.6 ± 1.4	–
CC(C)(C)c1cnc(CSc2cnc(NC(=O)CCCC(=O)Nc3ccn([C@@H]4O[C@H](CO)[C@@H](O)C4(F)F)c(=O)n3)s2)o1 [GI-04, N-(5-(((5-(t-butyl)oxazol-2-yl)methyl)thio)thiazol-2-yl)-N′-(1-((2R,4R,5R)-3,3-difluoro-4-hydroxy-5-(hydroxymethyl)tetrahydrofuran-2-yl)-2-oxo-1,2-dihydro-pyrimidin-4-yl)glutaramide]	3.15	60.9%	1008.78 ± 174.29 mm^3	19.9 ± 1.2	–
CC(C)(C)c1cnc(CSc2cnc(NC(=O)CC(=O)Nc3ccn([C@@H]4O[C@H](CO)[C@@H](O)C4(F)F)c(=O)n3)s2)o1 [GI-02, N-(5-(((5-(t-butyl)oxazol-2-yl)methyl)thio)thiazol-2-yl)-N′-(1-((2R,4R,5R)-3,3-difluoro-4-hydroxy-5-(hydroxymethyl)tetrahydrofuran-2-yl)-2-oxo-1,2-dihydro-pyrimidin-4-yl)malonamide]	4.77	–	–	–	–
Nc1ccn([C@@H]2O[C@H](CO)[C@@H](O)C2(F)F)c(=O)n1 [gemcitabine]	> 10	–	–	–	T/C (%) D22 (A2780 ovarian cancer; [2]): 1.32%
CC(C)(C)c1cnc(CSc2cnc(NC(=O)CCCCCCCC(=O)Nc3ccn([C@@H]4O[C@H](CO)[C@@H](O)C4(F)F)c(=O)n3)s2)o1 [GI-08, N-(5-(((5-(t-butyl)oxazol-2-yl)methyl)thio)thiazol-2-yl)-N′-(1-((2R,4R,5R)-3,3-difluoro-4-hydroxy-5-(hydroxymethyl)tetrahydrofuran-2-yl)-2-oxo-1,2-dihydro-pyrimidin-4-yl)azelamide]	3.29	–	–	–	–
CC(C)(C)c1cnc(CSc2cnc(NC(=O)CCCCC(=O)Nc3ccn([C@@H]4O[C@H](CO)[C@@H](O)C4(F)F)c(=O)n3)s2)o1 [GI-05, N-(5-(((5-(t-butyl)oxazol-2-yl)methyl)thio)thiazol-2-yl)-N′-(1-((2R,4R,5R)-3,3-difluoro-4-hydroxy-5-(hydroxymethyl)tetrahydrofuran-2-yl)-2-oxo-1,2-dihydro-pyrimidin-4-yl)adipamide]	2.46	56.14%	935.14 ± 130.33 mm^3	18.1 ± 1.2	–
CC(C)(C)c1cnc(CSc2cnc(NC(=O)CCCCCCC(=O)Nc3ccn([C@@H]4O[C@H](CO)[C@@H](O)C4(F)F)c(=O)n3)s2)o1 [GI-07, N-(5-(((5-(t-butyl)oxazol-2-yl)methyl)thio)thiazol-2-yl)-N′-(1-((2R,4R,5R)-3,3-difluoro-4-hydroxy-5-(hydroxymethyl)tetrahydrofuran-2-yl)-2-oxo-1,2-dihydro-pyrimidin-4-yl)suberamide]	3.55	–	–	–	–
CC(C)(C)c1cnc(CSc2cnc(NC(=O)CCCCCC(=O)Nc3ccn([C@@H]4O[C@H](CO)[C@@H](O)C4(F)F)c(=O)n3)s2)o1 [GI-06, N-(5-(((5-(t-butyl)oxazol-2-yl)methyl)thio)thiazol-2-yl)-N′-(1-((2R,4R,5R)-3,3-difluoro-4-hydroxy-5-(hydroxymethyl)tetrahydrofuran-2-yl)-2-oxo-1,2-dihydro-pyrimidin-4-yl)pimelamide]	1.38	12% and 12.64%	208.14 ± 80.53⋆ mm^3	18.0 ± 1.5	inhibitory activity against MCF-7-ADR proliferation (in words) (MCF-7-ADR; compared with gemcitabine): strongest anti-tumor activity; T/C (%) D22 (A2780 ovarian cancer; [3]): 0.46%; Tumor volume (mm^3) D22 (A2780 ovarian cancer; [3]): 19.83 ± 35.11^⋆ mm^3; T/C (%) D22 (A2780 ovarian cancer; [4]): 39.55%; Tumor volume (mm^3) D22 (A2780 ovarian cancer; [4]): 1757.57 ± 1306.74^⋆ mm^3; T/C (%) D22 (A2780 ovarian cancer; [5]): 2.11%; Tumor volume (mm^3) D22 (A2780 ovarian cancer; [5]): 92.38 ± 159.91^⋆ mm^3; T/C (%) D15 (HCT-116 colon cancer; [6]): 27% and 27.50%; Tumor volume (mm^3) D15 (HCT-116 colon cancer; [6]): 45.172 ± 214.92⋆ mm^3; Weight (g) D15 (HCT-116 colon cancer; [6]): 17.2 ± 0.8 g; T/C (%) D15 (HCT-116 colon cancer; [7]): 13% and 13.09%; Tumor volume (mm^3) D15 (HCT-116 colon cancer; [7]): 222.43 ± 113.48⋆ mm^3; Weight (g) D15 (HCT-116 colon cancer; [7]): 17.5 ± 1.1 g
CC(C)(C)c1cnc(CSc2cnc(NC(=O)C(=O)Nc3ccn([C@@H]4O[C@H](CO)[C@@H](O)C4(F)F)c(=O)n3)s2)o1 [GI-01, N-(5-(((5-(t-butyl)oxazol-2-yl)methyl)thio)thiazol-2-yl)-N′-(1-((2R,4R,5R)-3,3-difluoro-4-hydroxy-5-(hydroxymethyl)tetrahydrofuran-2-yl)-2-oxo-1,2-dihydro-pyrimidin-4-yl)oxamide]	5.56	–	–	–	–
CC(C)(C)c1cnc(CSc2cnc(NC(=O)CCC(=O)Nc3ccn([C@@H]4O[C@H](CO)[C@@H](O)C4(F)F)c(=O)n3)s2)o1 [GI-03, N-(5-(((5-(t-butyl)oxazol-2-yl)methyl)thio)thiazol-2-yl)-N′-(1-((2R,4R,5R)-3,3-difluoro-4-hydroxy-5-(hydroxymethyl)tetrahydrofuran-2-yl)-2-oxo-1,2-dihydro-pyrimidin-4-yl)succinamide]	6.13	–	–	–	–
Nc1ccn([C@@H]2O[C@H](CO)[C@@H](O)C2(F)F)c(=O)n1 [Gemcitabine hydrochloride, reference compound]	–	–	–	–	Tumor volume (mm^3) D22 (A2780 ovarian cancer; [2]): 59.97 ± 72.33^⋆ mm^3; Tumor volume (mm^3) D15 (HCT-116 colon cancer; [8]): 99.90 ± 55.92⋆ mm^3; Weight (g) D15 (HCT-116 colon cancer; [8]): 20.0 ± 1.5 g; T/C (%) D15 (HCT-116 colon cancer; 160 mg/kg intraperitoneal injection, D1 and D4, twice in total, hydrochloride): 5.83%; T/C (%) D15 (HCT-116 colon cancer; 160 mg/kg intraperitoneal injection, D1 and D4, twice in total, listed as gemcitabine hydrochloride, hydrochloride): 5.8%
